Some test systems named below: HL-60(TB) leukemia; HS 578T breast; HCT-116 colon; MDA-MB-231 breast; OVCAR-5 ovarian; SR leukemia; OVCAR-8 ovarian; CAKI-1 renal; MDA-MB-435; M14 melanoma; BT-549 breast; MALME-3M melanoma; RPMI-8226 leukemia; NCI/ADR-RES ovarian; K-562 leukemia; ACHN renal; PC-3 prostate; SW-620 colon; HT29 colon.
Experiment in all cases: NCI tumour cell line growth inhibition, 48 h

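Interpolation was linear, between the two tested concentrations surrounding the appropriate level; five concentrations were tested over 48 hours in 96-well plates. TGI marks complete inhibition of growth.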 Where a SMILES comes first, the peptide text is derived from it.

As for `COC(=O)[C@@H]1C2OC(C)(C)OC2CN1C(=O)OCc1ccccc1` (some centres not stated), the TGI in the test on HL-60(TB) leukemia, in the test on HS 578T breast, in the test with HCT-116 colon, with MDA-MB-231 breast, with OVCAR-5 ovarian and in the test with SR leukemia was more than 100 µM in each case. Further, the TGI in the test on OVCAR-8 ovarian, in the test with CAKI-1 renal, in the test on MDA-MB-435, with M14 melanoma, with BT-549 breast and with MALME-3M melanoma was more than 100 µM each time. The TGI in the test on RPMI-8226 leukemia, in the test with NCI/ADR-RES ovarian, with K-562 leukemia, in the test with ACHN renal, in the test with PC-3 prostate and in the test with SW-620 colon was more than 100 µM throughout. In the test with HT29 colon, this molecule registered a TGI of more than 100 µM.
`OCc1ccc2c(c1)CC1(C2)Cc2cc3c(cc2C1)CCC3`: the TGI in the test on HL-60(TB) leukemia was more than 100 µM; in the test with HS 578T breast, 29.3 µM; in the test on HCT-116 colon, more than 100 µM; with MDA-MB-231 breast it was more than 100 µM; in the test with OVCAR-5 ovarian, more than 100 µM; with SR leukemia it was more than 100 µM. For the same molecule, the TGI with OVCAR-8 ovarian is more than 100 µM; in the test on CAKI-1 renal it was more than 100 µM; in the test with MDA-MB-435, 0.615 µM; in the test on M14 melanoma, more than 100 µM; with BT-549 breast, more than 100 µM; with MALME-3M melanoma, more than 100 µM. Also, the TGI is more than 100 µM in the test with RPMI-8226 leukemia; more than 100 µM with NCI/ADR-RES ovarian; more than 100 µM in the test on K-562 leukemia; more than 82.4 µM with ACHN renal; more than 34.6 µM in the test with PC-3 prostate; more than 31.6 µM with SW-620 colon. This molecule gave a TGI in the test with HT29 colon of more than 100 µM.
With `COc1ccc2oc(=O)c3c(c2c1C)OC(C)(C)C=C3`, the TGI in the test with HL-60(TB) leukemia, in the test on HS 578T breast, in the test on HCT-116 colon, in the test with MDA-MB-231 breast, in the test with OVCAR-5 ovarian and in the test on SR leukemia was more than 100 µM in each case. Moreover, the TGI with OVCAR-8 ovarian, in the test on CAKI-1 renal, in the test on MDA-MB-435, with M14 melanoma, with BT-549 breast and in the test with MALME-3M melanoma was more than 100 µM throughout. The TGI with RPMI-8226 leukemia, in the test on NCI/ADR-RES ovarian, in the test on K-562 leukemia, in the test on ACHN renal, in the test on PC-3 prostate and in the test with SW-620 colon was more than 100 µM throughout. In the test with HT29 colon, this molecule registered a TGI of more than 100 µM.
Turning to `CC(=O)NC(CS)C(=O)NC(CO)C(=O)NC(CO)C(=O)NC(Cc1c[nH]c2ccccc12)C(=O)N1CCCC1C(=O)NC(CO)C(=O)NC(Cc1c[nH]c2ccccc12)C(=O)NC(Cc1c[nH]cn1)C(=O)NC(CO)C(=O)NC(Cc1c[nH]c2ccccc12)C(=O)NCC(=O)NCC(=O)NC(CC(=O)O)C(=O)NC(CCC(N)=O)C(=O)NC(CCCCN)C(=O)NC(Cc1ccccc1)C(=O)NC(CCCNC(=N)N)C(=O)NC(CCCCN)C(N)=O` (configuration not stated) (Ac-CSSWPSWHSWGGDQKFRK-NH2; configuration not given here), the TGI with HL-60(TB) leukemia, in the test on HS 578T breast, in the test on HCT-116 colon, with MDA-MB-231 breast, with OVCAR-5 ovarian and in the test on SR leukemia was more than 25 µM each time. Moreover, the TGI in the test with OVCAR-8 ovarian, in the test with CAKI-1 renal, in the test on MDA-MB-435, in the test with M14 melanoma, in the test with BT-549 breast and with MALME-3M melanoma was more than 25 µM each time. The TGI in the test on RPMI-8226 leukemia, in the test on NCI/ADR-RES ovarian, with K-562 leukemia, in the test on ACHN renal, in the test with PC-3 prostate and in the test on SW-620 colon was more than 25 µM in each case. Besides, the TGI in the test with HT29 colon is more than 25 µM.
As for `Nc1nc(Cl)cc(NCC2(CO)CCC(O)C2)n1` (configuration not stated), the TGI in the test on HL-60(TB) leukemia, in the test with HS 578T breast, in the test with HCT-116 colon, with MDA-MB-231 breast, with OVCAR-5 ovarian and in the test on SR leukemia was more than 100 µM each time. The TGI with OVCAR-8 ovarian, in the test with CAKI-1 renal, in the test with MDA-MB-435, in the test on M14 melanoma, in the test on BT-549 breast and in the test with MALME-3M melanoma was more than 100 µM in each case. The TGI in the test with RPMI-8226 leukemia, in the test on NCI/ADR-RES ovarian, with K-562 leukemia, in the test with ACHN renal, with PC-3 prostate and in the test on SW-620 colon was more than 100 µM in each case. This molecule yielded a TGI in the test with HT29 colon of more than 100 µM.
For the molecule `Cn1c(=O)c2c(nc(N)n2C2OC(CO)C(O)C2O)n(C)c1=O` (configuration not stated), the TGI in the test on HL-60(TB) leukemia, with HS 578T breast, in the test with HCT-116 colon, in the test with MDA-MB-231 breast, in the test with OVCAR-5 ovarian and in the test on SR leukemia was more than 100 µM throughout. Further, the TGI with OVCAR-8 ovarian, with CAKI-1 renal, in the test on MDA-MB-435, with M14 melanoma, in the test on BT-549 breast and in the test on MALME-3M melanoma was more than 100 µM each time. Moreover, the TGI in the test on RPMI-8226 leukemia, in the test on NCI/ADR-RES ovarian, in the test with K-562 leukemia, in the test on ACHN renal, with PC-3 prostate and in the test with SW-620 colon was more than 100 µM throughout. This molecule also yielded a TGI with HT29 colon of more than 100 µM.
On to `Cc1cc2c(cc1C)C(=O)C1(C2)Cc2c(ccc(C)c2C)C1=O` (configuration not stated), for which the TGI in the test on HL-60(TB) leukemia, in the test on HS 578T breast, in the test on HCT-116 colon, with MDA-MB-231 breast, with OVCAR-5 ovarian and with SR leukemia was more than 100 µM throughout. The TGI with OVCAR-8 ovarian, in the test on CAKI-1 renal, in the test on MDA-MB-435, in the test on M14 melanoma, with BT-549 breast and in the test on MALME-3M melanoma was more than 100 µM each time. In addition, the TGI with RPMI-8226 leukemia, in the test on NCI/ADR-RES ovarian, in the test with K-562 leukemia, in the test with ACHN renal, in the test with PC-3 prostate and in the test on SW-620 colon was more than 100 µM in each case.

Values taken from PubChem BioAssay (NCI).
